Molecular target: T1, CYP17 (steroid 17-alpha-hydroxylase/17,20 lyase) (Homo sapiens, UniProt P05093)
T1 sequence (P05093 whole entry): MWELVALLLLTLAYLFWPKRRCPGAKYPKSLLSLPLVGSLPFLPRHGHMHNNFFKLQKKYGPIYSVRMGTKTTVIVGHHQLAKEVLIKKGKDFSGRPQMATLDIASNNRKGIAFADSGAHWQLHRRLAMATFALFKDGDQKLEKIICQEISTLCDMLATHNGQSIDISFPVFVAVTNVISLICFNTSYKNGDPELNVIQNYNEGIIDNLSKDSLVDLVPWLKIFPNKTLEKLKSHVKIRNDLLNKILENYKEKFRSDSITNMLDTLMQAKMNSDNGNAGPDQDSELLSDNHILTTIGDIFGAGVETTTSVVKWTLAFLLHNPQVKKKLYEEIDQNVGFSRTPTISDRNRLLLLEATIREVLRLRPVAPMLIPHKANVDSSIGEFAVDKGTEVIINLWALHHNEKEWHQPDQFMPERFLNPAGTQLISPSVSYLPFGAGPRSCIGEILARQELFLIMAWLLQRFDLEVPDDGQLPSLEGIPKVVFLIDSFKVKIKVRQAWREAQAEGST
Experiment: Inhibition of CYP17 at 2.5 uM

Row | SMILES | inhibition at 2.5 µM [%]
1 | COc1ccc2c(=O)c(Cn3ccnc3)c(-c3ccc([N+](=O)[O-])cc3)oc2c1 | 9
2 | COc1ccc2c(=O)c(Cn3ccnc3)c(-c3ccc(C#N)cc3)oc2c1 | 12

Next, values leading:

Row | inhibition at 2.5 µM [%] | SMILES
3 | 29 | COc1ccc2c(=O)c(Cn3ccnc3)c(-c3ccc(Br)cc3)oc2c1
4 | 26 | COc1ccc(-c2oc3ccccc3c(=O)c2Cn2ccnc2)cc1
5 | 27 | O=c1c(Cn2ccnc2)c(-c2ccc(Br)cc2)oc2ccccc12
